Data published in ChEMBL document CHEMBL1150743, “Anti-inflammatory activity of benzoxazinoids from roots of Coix lachryma-jobi var. ma-yuen” (1988).

System: Mast cell
Assay: Antiinflammatory activity in Wistar rat peritoneal mast cells assessed as inhibition of concanavalin A-induced histamine release treated 10 mins before concanavalin A challenge measured after 30 mins
Format: functional

Row | Structure (SMILES) | ID50
1 | COc1ccc2c(c1)OC(O)C(=O)N2 (racemic) | 6 ×10⁻⁵ M
2 | O=C(O)[C@H]1O[C@@H](Oc2cc3oc(-c4ccccc4)cc(=O)c3c(O)c2O)[C@H](O)[C@@H](O)[C@@H]1O [BAICALIN] | 3 ×10⁻⁶ M
3 | COc1ccc2[nH]c(=O)oc2c1 [COIXOL] | 1 ×10⁻³ M
4 | C[C@]12CCC(=O)C=C1CC[C@@H]1[C@@H]2[C@@H](O)C[C@@]2(C)[C@H]1CC[C@]2(O)C(=O)CO [HYDROCORTISONE] | 5 ×10⁻⁵ M
5 | COc1ccc2c(c1)c(CC(=O)O)c(C)n2C(=O)c1ccc(Cl)cc1 [INDOMETHACIN] | 8 ×10⁻⁴ M
